Results on nine molecules are retold here after ChEMBL document CHEMBL5728268, “Substituted tricyclic heterocyclic compounds and use thereof” (2021).

The assay addresses Tyrosine-protein kinase JAK2 (Homo sapiens, UniProt O60674). In words: JAK2 Assay: JAK2 (5-20 mU diluted in 50 mM Tris pH 7.5, 0.1 mM EGTA, 0.05% 0-mercaptoethanol, 1 mg/ml BSA) is assayed against PDKtide ([…]-[…]) in a final volume of 25.5 μl containing 50 mM Tris pH 7.5, 0.1 mM EGTA, 0.05% 0-mercaptoethanol, 100 μM substrate peptide, 10 mM magnesium acetate and 0.005 mM [33P-γ-ATP] (50-1000 cpm/pmole) and incubated for 30 min at room temperature Assays are stopped by addition of 5 μl of 0.5 M (3%) orthophosphoric acid and then harvested onto P81 Unifilter plates with a wash buffer of 50 mM orthophosphoric acid.

Tyrosine-protein kinase JAK2, sequence (O60674 whole entry): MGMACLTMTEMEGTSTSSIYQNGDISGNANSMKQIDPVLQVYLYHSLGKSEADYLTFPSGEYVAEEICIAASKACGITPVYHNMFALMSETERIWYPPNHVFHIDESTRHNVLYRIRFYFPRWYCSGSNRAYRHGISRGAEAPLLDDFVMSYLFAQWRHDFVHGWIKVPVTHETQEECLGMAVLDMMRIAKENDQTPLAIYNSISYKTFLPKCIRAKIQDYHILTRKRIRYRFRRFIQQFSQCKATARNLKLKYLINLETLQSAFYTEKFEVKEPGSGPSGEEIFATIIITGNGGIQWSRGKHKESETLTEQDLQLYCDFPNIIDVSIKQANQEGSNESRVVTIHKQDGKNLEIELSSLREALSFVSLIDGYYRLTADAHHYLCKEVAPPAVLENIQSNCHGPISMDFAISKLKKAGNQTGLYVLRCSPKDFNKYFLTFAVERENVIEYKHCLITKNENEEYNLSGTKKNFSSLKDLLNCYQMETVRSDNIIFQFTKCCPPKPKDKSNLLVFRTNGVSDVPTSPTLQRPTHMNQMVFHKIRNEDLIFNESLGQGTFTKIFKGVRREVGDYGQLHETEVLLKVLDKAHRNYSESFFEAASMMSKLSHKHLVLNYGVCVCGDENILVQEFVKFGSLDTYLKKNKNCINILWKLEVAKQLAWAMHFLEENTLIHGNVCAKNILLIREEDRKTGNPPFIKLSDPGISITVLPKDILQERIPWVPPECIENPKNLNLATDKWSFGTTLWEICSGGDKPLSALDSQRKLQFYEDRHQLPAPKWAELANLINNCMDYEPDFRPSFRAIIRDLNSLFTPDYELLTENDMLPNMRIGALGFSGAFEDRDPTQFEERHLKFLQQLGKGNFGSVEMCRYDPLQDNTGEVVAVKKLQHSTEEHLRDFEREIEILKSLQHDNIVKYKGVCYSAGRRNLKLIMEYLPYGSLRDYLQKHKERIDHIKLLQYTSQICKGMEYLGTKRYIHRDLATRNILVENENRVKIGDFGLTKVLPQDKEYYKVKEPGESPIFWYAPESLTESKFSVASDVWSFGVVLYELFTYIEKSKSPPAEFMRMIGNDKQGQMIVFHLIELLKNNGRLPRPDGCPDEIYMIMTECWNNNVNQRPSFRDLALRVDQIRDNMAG

Broadly, the IC50 is the concentration that gives 50% inhibition. Read a low IC50 as greater potency in that assay. Consider `CCn1ncc2c1CN(C1CCOCC1)c1nccc3[nH]nc-2c13`, for which the concentration for half-maximal inhibition (IC50) worked out at 1500 nM.

For `Cc1cc2c(cn1)CN(C1CCOCC1)c1nccc3[nH]nc-2c13`, the 50% inhibitory concentration (IC50) came out at 890 nM. This IC50 lies about 1.7-fold lower than the previous one.

For the molecule `Fc1ccc2c(c1)-c1n[nH]c3ccnc(c13)N(C1CCOCC1)C2`, it took 900 nM to reach half-maximal inhibition (IC50). Then `CCc1cc2c(cn1)CN(C1CCOCC1)c1nccc3[nH]nc-2c13`, with 1700 nM; and `Cn1ncc2c1CN(C1CCOCC1)c1nccc3[nH]nc-2c13`, with 920 nM; and `c1cc2[nH]nc3c2c(n1)N(C1CCCC1)CCC3`, with 6600 nM.

In turn, `CCn1ncc2c1CN(C1CCN(C(C)C)CC1)c1nccc3[nH]nc-2c13` came in with a concentration for half-maximal inhibition (IC50) of 5400 nM. For the molecule `CC(C)n1ncc2c1CN(C1CCOCC1)c1nccc3[nH]nc-2c13`, the IC50 turned out to be 2100 nM. Compared with the last molecule, the IC50 is about 2.6-fold lower. Under `CC(C)N1CCC(N2Cc3c(cnn3C)-c3n[nH]c4ccnc2c34)CC1` stands 4500 nM.
